The values below come from patent publication US12624018B1, “Inhibitors of RIPK2 and medical uses thereof” (Odyssey Therapeutics, Inc., priority 2022, dated 2026).

As usually defined, the IC50 is the midpoint of a concentration-inhibition curve.

The target in this assay is T1, RIPK2 enzyme (Homo sapiens, UniProt O43353).
T1 construct: purchased Carna 09-128
T1 sequence (O43353 1-299 limits assumed): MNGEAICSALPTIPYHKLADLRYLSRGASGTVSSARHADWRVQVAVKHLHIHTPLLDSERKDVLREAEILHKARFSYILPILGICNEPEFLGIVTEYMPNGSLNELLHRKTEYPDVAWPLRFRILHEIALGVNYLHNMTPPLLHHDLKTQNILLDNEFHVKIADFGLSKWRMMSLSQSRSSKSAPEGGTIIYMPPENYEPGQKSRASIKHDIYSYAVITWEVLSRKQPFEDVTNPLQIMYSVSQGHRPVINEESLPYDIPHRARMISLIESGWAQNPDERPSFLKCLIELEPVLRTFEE
In words: RIPK2 inhibition (ADP-Glo Kinase Assay). The assay is classed as biochemical. The following applies: RIPK2 5 nM, ATP 150 μM, MBP substrate, read-out: RIPK2 IC50. The gist of the method:
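Swine MBP substrate; compound and 5 nM RIPK2 first mixed for 30 min at room temperature; buffer pH 7.5 HEPES 50 mM with 10 mM MgCl2, 2 mM DTT, 1 mM EGTA, Brij-35, BSA.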
Turning to `CC(C)(C)n1cc(NC(=O)Cc2ncc(Oc3ncnc4ccc(OC5CCNCC5)cc34)cc2F)cn1` [Compound 51, N-(1-(tert-butyl)-1H-pyrazol-4-yl)-2-(3-fluoro-5-((6-(piperidin-4-yloxy)quinazolin-4-yl)oxy)pyridin-2-yl)acetamide], the concentration for half-maximal inhibition (IC50) was 18.7 nM.
Take `CC(C)(C)c1cc(NC(=O)Cc2ncc(Oc3ncnc4ccc(F)cc34)cc2F)ncn1` [Compound 52, N-(6-(tert-butyl)pyrimidin-4-yl)-2-(3-fluoro-5-((6-fluoroquinazolin-4-yl)oxy)pyridin-2-yl)acetamide]: the IC50 is 54.1 nM.
With `Cc1nc(NC(=O)Cc2ncc(Oc3ncnc4ccc(F)cc34)cc2F)cc(C(C)(C)C)n1` [Compound 53, N-(6-(tert-butyl)-2-methylpyrimidin-4-yl)-2-(3-fluoro-5-((6-fluoroquinazolin-4-yl)oxy)pyridin-2-yl)acetamide] the figure was 225 nM; with `Cc1cc(CC(=O)Nc2cc(C(C)(C)C)ncn2)ccc1Oc1ncnc2ccc(F)cc12` [Compound 54, N-(6-(tert-butyl)pyrimidin-4-yl)-2-(4-((6-fluoroquinazolin-4-yl)oxy)-3-methylphenyl) acetamide], 54.1 nM.
As to `Cc1cc(CC(=O)Nc2cc(C(C)(C)C)cnn2)ccc1Oc1ncnc2ccc(F)cc12` [Compound 55, N-(5-(tert-butyl)pyridazin-3-yl)-2-(4-((6-fluoroquinazolin-4-yl)oxy)-3-methylphenyl) acetamide], the IC50 is 24.5 nM.
With `CCN1CCC(Oc2ccc3ncnc(Oc4cnc(CC(=O)Nc5cnn(C(C)(C)C)c5)c(F)c4)c3c2)CC1` [Compound 56, N-(1-(tert-butyl)-1H-pyrazol-4-yl)-2-(5-((6-((1-ethylpiperidin-4-yl)oxy)quinazolin-4-yl)oxy)-3-fluoropyridin-2-yl)acetamide] the figure was 4.9 nM; with `CN1CCC(Oc2ccc3ncnc(Oc4cnc(CC(=O)Nc5cc(C(C)(C)C)[nH]n5)c(F)c4)c3c2)CC1` [Compound 57, N-(5-(tert-butyl)-1H-pyrazol-3-yl)-2-(3-fluoro-5-((6-((1-methylpiperidin-4-yl)oxy)quinazolin-4-yl)oxy)pyridin-2-yl)acetamide], below 2.5 nM; with `CC(C)(C)c1cc(NC(=O)Cc2ncc(Oc3ncnc4ccc(OC5CCNCC5)cc34)cc2F)n[nH]1` [Compound 58, N-(5-(tert-butyl)-1H-pyrazol-3-yl)-2-(3-fluoro-5-((6-(piperidin-4-yloxy)quinazolin-4-yl)oxy)pyridin-2-yl)acetamide], 3.7 nM.
Take `CN1CC[C@H](Oc2ccc3ncnc(Oc4cnc(CC(=O)Nc5cnn(C(C)(C)C)c5)c(F)c4)c3c2)C1` [Compound 59, (S)-N-(1-(tert-butyl)-1H-pyrazol-4-yl)-2-(3-fluoro-5-((6-((1-methylpyrrolidin-3-yl)oxy)quinazolin-4-yl)oxy)pyridin-2-yl)acetamide]: the IC50 was determined as 41.5 nM.
Turning to `CN1CC[C@@H](Oc2ccc3ncnc(Oc4cnc(CC(=O)Nc5cnn(C(C)(C)C)c5)c(F)c4)c3c2)C1` [Compound 60, (R)-N-(1-(tert-butyl)-1H-pyrazol-4-yl)-2-(3-fluoro-5-((6-((1-methylpyrrolidin-3-yl)oxy)quinazolin-4-yl)oxy)pyridin-2-yl)acetamide], the IC50 worked out at 45.7 nM.
Take `CN1CCC(COc2ccc3ncnc(Oc4cnc(CC(=O)Nc5cnn(C(C)(C)C)c5)c(F)c4)c3c2)CC1` [Compound 61, N-(1-(tert-butyl)-1H-pyrazol-4-yl)-2-(3-fluoro-5-((6-((1-methylpiperidin-4-yl)methoxy)quinazolin-4-yl)oxy)pyridin-2-yl)acetamide]: the IC50 amounted to 13.3 nM.
With `CN1[C@@H]2CC[C@H]1C[C@@H](Oc1ccc3ncnc(Oc4cnc(CC(=O)Nc5cnn(C(C)(C)C)c5)c(F)c4)c3c1)C2` [Compound 62, N-(1-(tert-butyl)-1H-pyrazol-4-yl)-2-(3-fluoro-5-((6-(((1R,3r,5S)-8-methyl-8-azabicyclo [3.2.1]octan-3-yl)oxy)quinazolin-4-yl)oxy)pyridin-2-yl)acetamide] the figure was 13.2 nM.
Regarding `CC(C)(C)n1cc(NC(=O)Cc2ncc(Oc3ncnc4ccc(O[C@@H]5CCOC5)cc34)cc2F)cn1` [Compound 63, (R)-N-(1-(tert-butyl)-1H-pyrazol-4-yl)-2-(3-fluoro-5-((6-((tetrahydrofuran-3-yl)oxy)quinazolin-4-yl)oxy)pyridin-2-yl)acetamide], the IC50 is 37.3 nM.
As for `CC(C)(C)n1cc(NC(=O)Cc2ncc(Oc3ncnc4ccc(O[C@H]5CCOC5)cc34)cc2F)cn1` [Compound 64, (S)-N-(1-(tert-butyl)-1H-pyrazol-4-yl)-2-(3-fluoro-5-((6-((tetrahydrofuran-3-yl)oxy)quinazolin-4-yl)oxy)pyridin-2-yl)acetamide], the IC50 was found to be 67.5 nM.
With `CC(C)(C)c1cc(NC(=O)Cc2ccc(Oc3ccnc4ccc(S(C)(=N)=O)cc34)cc2F)[nH]n1` (centres unmarked) [Compound 65, N-(5-(tert-butyl)-1H-pyrazol-3-yl)-2-(2-fluoro-4-((6-(S-methylsulfonimidoyl)quinolin-4-yl)oxy)phenyl) acetamide] the figure was below 2.5 nM; with `CC(C)(C)n1cc(NC(=O)Cc2ccc(Oc3ccnc4ccc(S5(=O)=NCCC5)cc34)cc2F)cn1` (centres unmarked) [Compound 66, N-(1-(tert-butyl)-1H-pyrazol-4-yl)-2-(2-fluoro-4-((6-(1-oxido-4,5-dihydro-3H-1λ^6-isothiazol-1-yl)quinolin-4-yl)oxy)phenyl) acetamide], below 2.5 nM; with `CC(C)(C)n1cc(NC(=O)Cc2ccc(Oc3ccnc4ccc(S5(=O)=NCCCC5)cc34)cc2F)cn1` (centres unmarked) [Compound 67, N-(1-(tert-butyl)-1H-pyrazol-4-yl)-2-(2-fluoro-4-((6-(1-oxido-3,4,5,6-tetrahydro-1λ^6,2-thiazin-1-yl)quinolin-4-yl)oxy)phenyl)acetamide], below 2.5 nM.
With `CC(C)(C)n1cc(NC(=O)Cc2ccc(Oc3ccnc4ccc(NS(C)(=O)=O)cc34)cc2F)cn1` [Compound 68, N-(1-(tert-butyl)-1H-pyrazol-4-yl)-2-(2-fluoro-4-((6-(methylsulfonamido)quinolin-4-yl)oxy)phenyl)acetamide] the figure was below 2.5 nM; with `CC(C)(C)n1cc(NC(=O)Cc2ccc(Oc3ccnc4ccc(S(C)(=O)=NC#N)cc34)cc2F)cn1` (centres unmarked) [Compound 71, N-(1-(tert-butyl)-1H-pyrazol-4-yl)-2-(4-((6-(N-cyano-S-methylsulfonimidoyl)quinolin-4-yl)oxy)-2-fluorophenyl)acetamide], 9.1 nM.
With `CC(C)(C)n1cc(NC(=O)Cc2ccc(Oc3ccnc4ccc(S(=N)(=O)C5CC5)cc34)cc2F)cn1` (centres unmarked) [Compound 72, N-(1-(tert-butyl)-1H-pyrazol-4-yl)-2-(4-((6-(cyclopropanesulf-onimidoyl)quinolin-4-yl)oxy)-2-fluorophenyl) acetamide] the figure was below 2.5 nM; with `CCS(=N)(=O)c1ccc2nccc(Oc3ccc(CC(=O)Nc4cnn(C(C)(C)C)c4)c(F)c3)c2c1` (centres unmarked) [Compound 73, N-(1-(tert-butyl)-1H-pyrazol-4-yl)-2-(4-((6-(ethylsulfonimidoyl)quinolin-4-yl)oxy)-2-fluorophenyl) acetamide], 3.2 nM.
For the compound `CCS(=O)(=NC)c1ccc2nccc(Oc3ccc(CC(=O)Nc4cnn(C(C)(C)C)c4)c(F)c3)c2c1` (centres unmarked) [Compound 74, N-(1-(tert-butyl)-1H-pyrazol-4-yl)-2-(2-fluoro-4-((6-(N-methylethylsulfonimidoyl)quinolin-4-yl)oxy)phenyl)acetamide], the IC50 came out at 4 nM.
In the case of `CC(C)(C)n1cc(NC(=O)Cc2ccc(Oc3ccnc4ccc(CS(C)(=O)=O)cc34)cc2F)cn1` [Compound 75, N-(1-(tert-butyl)-1H-pyrazol-4-yl)-2-(2-fluoro-4-((6-((methylsulfonyl)methyl)quinolin-4-yl)oxy)phenyl)acetamide], the IC50 was below 2.5 nM.
In the case of `Cc1cc(CC(=O)Nc2cnn(C(C)(C)C)c2)ccc1Oc1ccnc2ccc(S(C)(=N)=O)cc12` (centres unmarked) [Compound 76, N-(1-(tert-butyl)-1H-pyrazol-4-yl)-2-(3-methyl-4-((6-(S-methylsulfonimidoyl)quinolin-4-yl)oxy)phenyl) acetamide], the IC50 was below 2.5 nM.
`CN=S(C)(=O)c1ccc2nccc(Oc3ccc(CC(=O)Nc4cnn(C(C)(C)C)c4)cc3C)c2c1` (centres unmarked) [Compound 77, N-(1-(tert-butyl)-1H-pyrazol-4-yl)-2-(4-((6-(N,S-dimethylsulfonimidoyl)quinolin-4-yl)oxy)-3-methylphenyl)acetamide]: the IC50 is below 2.5 nM.
With `CN1CCC(Oc2ccc3nccc(Oc4ccc(CC(=O)Nc5cnn(C(C)(C)C)c5)c(F)c4)c3c2)CC1` [Compound 79, N-(1-(tert-butyl)-1H-pyrazol-4-yl)-2-(2-fluoro-4-((6-((1-methyl-piperidin-4-yl)oxy)quinolin-4-yl)oxy)phenyl) acetamide] the figure was below 2.5 nM; with `CC(C)(C)n1cc(NC(=O)Cc2ncc(Oc3ccnc4ccc(OC5CCNCC5)cc34)cc2F)cn1` [Compound 80, N-(1-(tert-butyl)-1H-pyrazol-4-yl)-2-(3-fluoro-5-((6-(piperidin-4-yloxy)quinolin-4-yl)oxy)pyridin-2-yl)acetamide], 3.5 nM.
With `CC(C)(C)n1cc(NC(=O)Cc2ccc(Oc3ccnc4ccc(OC5CCNCC5)cc34)cc2F)cn1` [Compound 81, N-(1-(tert-butyl)-1H-pyrazol-4-yl)-2-(2-fluoro-4-((6-(piperidin-4-yloxy)quinolin-4-yl)oxy)phenyl) acetamide] the figure was below 2.5 nM.
With `Cc1cc(CC(=O)Nc2cnn(C(C)(C)C)c2)ccc1Oc1ncnc2ccc(OC3CCNCC3)cc12` [Compound 85, N-(1-(tert-butyl)-1H-pyrazol-4-yl)-2-(3-methyl-4-((6-(piperidin-4-yloxy)quinazolin-4-yl)oxy)phenyl) acetamide] the figure was 5.1 nM.
